{
  "source": "patent US20250289787A1",
  "about": "“HERBICIDAL 2-OXO-NICOTINIC ACID DERIVATIVES” (SYNGENTA CROP PROTECTION AG, priority 2022, published 2025)",
  "type_in_all_cases": "in vivo",
  "design_in_all_cases": "key: 5=81-100%; 4=61-80%; 3=41-60%; 2=21-40%; 1=1-20%; 0=no damage to the plant; -=not tested",
  "key": {"[1]": {"test_system": "Ipomoea hederacea (IPOHE)", "assay": "Post-emergence test, herbicidal damage", "conditions": "sprayed after 8 days cultivation, 1000 g/ha unless otherwise stated, evaluated after 13 days, five-point scale", "protocol": "(§1) Seeds of a variety of test species are sown in standard soil in pots Amaranthus palmeri (AMAPA), (Amaranthus retoflexus (AMARE), Echinochloa crus-galli (ECHCG), Zea mays (ZEAMX), Ipomoea 5 hederacea (IPOHE), and Setaria faberi (SETFA). After 8 days cultivation under controlled conditions in a glasshouse (at 24° C./16° C., day/night; 14 hours light; 65% humidity), the plants are sprayed with an aqueous spray solution derived from the formulation of the technical active ingredient in acetone/water (50:50) solution containing 0.5% Tween 20 (polyoxyethelyene sorbitan monolaurate, CAS RN 9005-64-5). Compounds are applied at 1000 g/ha unless otherwise stated. The test plants are then grown in a glasshouse under controlled conditions in a glasshouse (at 24° C./16° C., day/night; 14 hours light; 65% humidity) and watered twice daily. After 13 days the test is evaluated for the percentage damage caused to the plant. The biological activities are shown in the following table on a five-point scale (5=81-100%; 4=61-80%; 3=41-60%; 2=21-40%; 1=1-20%; 0=no damage to the plant; -=not tested)."}, "[2]": {"test_system": "Echinochloa crus-galli (ECHCG)", "assay": "Post-emergence test, herbicidal damage", "conditions": "sprayed after 8 days cultivation, 1000 g/ha unless otherwise stated, evaluated after 13 days, five-point scale", "protocol": "as §1"}, "[3]": {"test_system": "Setaria faberi (SETFA)", "assay": "Post-emergence test, herbicidal damage", "conditions": "sprayed after 8 days cultivation, 1000 g/ha unless otherwise stated, evaluated after 13 days, five-point scale", "protocol": "as §1"}, "[4]": {"test_system": "Amaranthus retoflexus (AMARE)", "assay": "Post-emergence test, herbicidal damage", "conditions": "sprayed after 8 days cultivation, 1000 g/ha unless otherwise stated, evaluated after 13 days, five-point scale", "protocol": "as §1"}, "[5]": {"test_system": "Amaranthus palmeri (AMAPA)", "assay": "Post-emergence test, herbicidal damage", "conditions": "sprayed after 8 days cultivation, 1000 g/ha unless otherwise stated, evaluated after 13 days, five-point scale", "protocol": "as §1"}, "[6]": {"test_system": "Zea mays (ZEAMX)", "assay": "Post-emergence test, herbicidal damage", "conditions": "sprayed after 8 days cultivation, 1000 g/ha unless otherwise stated, evaluated after 13 days, five-point scale", "protocol": "as §1"}, "[7]": {"test_system": "Ipomoea hederacea (IPOHE)", "assay": "Pre-emergence test, herbicidal damage", "conditions": "1000 g/ha unless otherwise stated, evaluated after 13 days, five-point scale"}, "[8]": {"test_system": "Echinochloa crus-galli (ECHCG)", "assay": "Pre-emergence test, herbicidal damage", "conditions": "1000 g/ha unless otherwise stated, evaluated after 13 days, five-point scale"}, "[9]": {"test_system": "Amaranthus retoflexus (AMARE)", "assay": "Pre-emergence test, herbicidal damage", "conditions": "1000 g/ha unless otherwise stated, evaluated after 13 days, five-point scale"}, "[10]": {"test_system": "Zea mays (ZEAMX)", "assay": "Pre-emergence test, herbicidal damage", "conditions": "1000 g/ha unless otherwise stated, evaluated after 13 days, five-point scale"}, "[11]": {"test_system": "Setaria faberi (SETFA)", "assay": "Pre-emergence test, herbicidal damage", "conditions": "1000 g/ha unless otherwise stated, evaluated after 13 days, five-point scale"}, "[12]": {"test_system": "Amaranthus palmeri (AMAPA)", "assay": "Pre-emergence test, herbicidal damage", "conditions": "1000 g/ha unless otherwise stated, evaluated after 13 days, five-point scale"}},
  "data": [
    {"smiles": "Cc1c(-c2ccc(Cl)c(Cl)c2)c(C(=O)O)c(=O)n(C)c1C", "note": "[Compound 12, 4-(3,4-dichlorophenyl)-1,5,6-trimethyl-2-oxo-pyridine-3-carboxylic acid]", "values": [
      {"measurement": "percentage damage caused to the plant, IPOHE", "setting": "[1]", "result": "1 (1=1-20%)"},
      {"measurement": "percentage damage caused to the plant, ECHCG", "setting": "[2]", "result": "1 (1=1-20%)"},
      {"measurement": "percentage damage caused to the plant, SEFTA", "setting": "[3]", "result": "1 (1=1-20%)"},
      {"measurement": "percentage damage caused to the plant, AMARE", "setting": "[4]", "result": "1 (1=1-20%)"},
      {"measurement": "percentage damage caused to the plant, AMAPA", "setting": "[5]", "result": "2 (2=21-40%)"},
      {"measurement": "percentage damage caused to the plant, ZEAMX", "setting": "[6]", "result": 0},
      {"measurement": "percentage damage caused to the plant, IPOHE", "setting": "[7]", "result": 0},
      {"measurement": "percentage damage caused to the plant, ECHCG", "setting": "[8]", "result": "1 (1=1-20%)"},
      {"measurement": "percentage damage caused to the plant, AMARE", "setting": "[9]", "result": 0},
      {"measurement": "percentage damage caused to the plant, ZEAMX", "setting": "[10]", "result": 0},
      {"measurement": "percentage damage caused to the plant, SEFTA", "setting": "[11]", "result": "2 (2=21-40%)"},
      {"measurement": "percentage damage caused to the plant, AMAPA", "setting": "[12]", "result": "1 (1=1-20%)"}
    ]},
    {"smiles": "Cc1cc(-c2ccc(Cl)c(Cl)c2)c(C(=O)O)c(=O)n1-c1ccc(Cl)cc1F", "note": "[Compound 13, 1-(4-chloro-2-fluoro-phenyl)-4-(3,4-dichlorophenyl)-6-methyl-2-oxo-pyridine-3-carboxylic acid]", "values": [
      {"measurement": "percentage damage caused to the plant, IPOHE", "setting": "[1]", "result": 0},
      {"measurement": "percentage damage caused to the plant, ECHCG", "setting": "[2]", "result": 0},
      {"measurement": "percentage damage caused to the plant, SEFTA", "setting": "[3]", "result": 0},
      {"measurement": "percentage damage caused to the plant, AMARE", "setting": "[4]", "result": "2 (2=21-40%)"},
      {"measurement": "percentage damage caused to the plant, AMAPA", "setting": "[5]", "result": "3 (3=41-60%)"},
      {"measurement": "percentage damage caused to the plant, ZEAMX", "setting": "[6]", "result": "1 (1=1-20%)"},
      {"measurement": "percentage damage caused to the plant, IPOHE", "setting": "[7]", "result": 0},
      {"measurement": "percentage damage caused to the plant, ECHCG", "setting": "[8]", "result": "2 (2=21-40%)"},
      {"measurement": "percentage damage caused to the plant, AMARE", "setting": "[9]", "result": "2 (2=21-40%)"},
      {"measurement": "percentage damage caused to the plant, ZEAMX", "setting": "[10]", "result": 0},
      {"measurement": "percentage damage caused to the plant, SEFTA", "setting": "[11]", "result": 0},
      {"measurement": "percentage damage caused to the plant, AMAPA", "setting": "[12]", "result": "2 (2=21-40%)"}
    ]},
    {"smiles": "Cc1cc(-c2ccc(Cl)c(Cl)c2)c(C(=O)O)c(=O)n1-c1cccc(C(F)(F)F)c1", "note": "[Compound 15, 4-(3,4-dichlorophenyl)-6-methyl-2-oxo-1-[3-(trifluoromethyl)phenyl]pyridine-3-carboxylic acid]", "values": [
      {"measurement": "percentage damage caused to the plant, IPOHE", "setting": "[1]", "result": "1 (1=1-20%)"},
      {"measurement": "percentage damage caused to the plant, ECHCG", "setting": "[2]", "result": "1 (1=1-20%)"},
      {"measurement": "percentage damage caused to the plant, SEFTA", "setting": "[3]", "result": "2 (2=21-40%)"},
      {"measurement": "percentage damage caused to the plant, AMARE", "setting": "[4]", "result": "4 (4=61-80%)"},
      {"measurement": "percentage damage caused to the plant, AMAPA", "setting": "[5]", "result": "4 (4=61-80%)"},
      {"measurement": "percentage damage caused to the plant, ZEAMX", "setting": "[6]", "result": "1 (1=1-20%)"},
      {"measurement": "percentage damage caused to the plant, IPOHE", "setting": "[7]", "result": 0},
      {"measurement": "percentage damage caused to the plant, ECHCG", "setting": "[8]", "result": 0},
      {"measurement": "percentage damage caused to the plant, AMARE", "setting": "[9]", "result": "4 (4=61-80%)"},
      {"measurement": "percentage damage caused to the plant, ZEAMX", "setting": "[10]", "result": 0},
      {"measurement": "percentage damage caused to the plant, SEFTA", "setting": "[11]", "result": "2 (2=21-40%)"},
      {"measurement": "percentage damage caused to the plant, AMAPA", "setting": "[12]", "result": "4 (4=61-80%)"}
    ]},
    {"smiles": "Cc1cc(-c2ccc(Cl)c(Cl)c2)c(C(=O)O)c(=O)n1-c1ccc(F)cc1", "note": "[Compound 16, 4-(3,4-dichlorophenyl)-1-(4-fluorophenyl)-6-methyl-2-oxo-pyridine-3-carboxylic acid]", "values": [
      {"measurement": "percentage damage caused to the plant, IPOHE", "setting": "[1]", "result": "1 (1=1-20%)"},
      {"measurement": "percentage damage caused to the plant, ECHCG", "setting": "[2]", "result": "1 (1=1-20%)"},
      {"measurement": "percentage damage caused to the plant, SEFTA", "setting": "[3]", "result": "2 (2=21-40%)"},
      {"measurement": "percentage damage caused to the plant, AMARE", "setting": "[4]", "result": "1 (1=1-20%)"},
      {"measurement": "percentage damage caused to the plant, AMAPA", "setting": "[5]", "result": "2 (2=21-40%)"},
      {"measurement": "percentage damage caused to the plant, ZEAMX", "setting": "[6]", "result": "1 (1=1-20%)"},
      {"measurement": "percentage damage caused to the plant, IPOHE", "setting": "[7]", "result": 0},
      {"measurement": "percentage damage caused to the plant, ECHCG", "setting": "[8]", "result": 0},
      {"measurement": "percentage damage caused to the plant, AMARE", "setting": "[9]", "result": 0},
      {"measurement": "percentage damage caused to the plant, ZEAMX", "setting": "[10]", "result": 0},
      {"measurement": "percentage damage caused to the plant, SEFTA", "setting": "[11]", "result": 0},
      {"measurement": "percentage damage caused to the plant, AMAPA", "setting": "[12]", "result": 0}
    ]},
    {"smiles": "Cc1cc(-c2ccc(Cl)c(Cl)c2)c(C(=O)O)c(=O)n1-c1cccc(C(F)(F)F)c1F", "note": "[Compound 17, 4-(3,4-dichlorophenyl)-1-[2-fluoro-3-(trifluoromethyl)phenyl]-6-methyl-2-oxo-pyridine-3-carboxylic acid]", "values": [
      {"measurement": "percentage damage caused to the plant, IPOHE", "setting": "[1]", "result": 0},
      {"measurement": "percentage damage caused to the plant, ECHCG", "setting": "[2]", "result": 0},
      {"measurement": "percentage damage caused to the plant, SEFTA", "setting": "[3]", "result": "1 (1=1-20%)"},
      {"measurement": "percentage damage caused to the plant, AMARE", "setting": "[4]", "result": "1 (1=1-20%)"},
      {"measurement": "percentage damage caused to the plant, AMAPA", "setting": "[5]", "result": "2 (2=21-40%)"},
      {"measurement": "percentage damage caused to the plant, ZEAMX", "setting": "[6]", "result": 0},
      {"measurement": "percentage damage caused to the plant, IPOHE", "setting": "[7]", "result": 0},
      {"measurement": "percentage damage caused to the plant, ECHCG", "setting": "[8]", "result": 0},
      {"measurement": "percentage damage caused to the plant, AMARE", "setting": "[9]", "result": 0},
      {"measurement": "percentage damage caused to the plant, ZEAMX", "setting": "[10]", "result": 0},
      {"measurement": "percentage damage caused to the plant, SEFTA", "setting": "[11]", "result": 0},
      {"measurement": "percentage damage caused to the plant, AMAPA", "setting": "[12]", "result": 0}
    ]}
  ]
}
